Assay results taken from patent publication US20100249116A1 (priority 2007, published 2010).
Read-outs that look alike come from different tables or passages of the source.

How the values were obtained:
[1] = system: acute intoxication of male Wistar rats with ethylene glycol (EG); conditions: rat, in vivo
[2] = in vivo; conditions: male, Wistar, rat, sc

| Structure (SMILES) | LD50 (toxicity parameter of EG) ([1]; male, Wistar, sc) | K - Coefficient of efficiency (ratio of LD50 for treated animals to LD50 for non-treated animals) [1] | KG - Coefficient of guaranteed defense (ratio of LD10 for treated animals to LD90 for non-treated animals) [1] | LD10 (toxicity parameter of EG) ([1]; sc) | LD16 (toxicity parameter of EG) ([1]; sc) | LD84 (toxicity parameter of EG) ([1]; sc) | LD90 (toxicity parameter of EG) ([1]; sc) | LD50 [2] | LD10 (toxicity parameter of EG) ([1]; male, Wistar, sc) | LD16 (toxicity parameter of EG) ([1]; male, Wistar, sc) | LD84 (toxicity parameter of EG) ([1]; male, Wistar, sc) | LD90 (toxicity parameter of EG) ([1]; male, Wistar, sc) |
| --- | --- | --- | --- | --- | --- | --- | --- | --- | --- | --- | --- | --- |
| Cc1cn[nH]c1 [4MP, 4-methylpyrazole] | 13000 mg/kg | 3.71 | 2.04 | 10600 mg/kg | 11000 mg/kg | 15200 mg/kg | 16100 mg/kg | – | – | – | – | – |
| OCCO [EG, Ethylene Glycol] | – | – | – | – | – | – | – | 3500 mg/kg | 2220 mg/kg | 2490 mg/kg | 4530 mg/kg | 5200 mg/kg |
